Measured values from patent US20020127228A1, “PGT and apoptosis” (WELFIDE CORPORATION, priority 1998, published 2002).
“Also recorded” adds a separate entry of the source.

What was measured:
PGT = biological target: T1, PGT (Rattus norvegicus, UniProt Q00910); assay: Uptake of tritium-labelled PGE1 into differentiated PC12 cells through PGT; format: cell-based
T1 construct: endogenous in cells; host or cells: differentiated PC12 cells
Experimental: 1) Differentiated PC12 cells and tritium-labelled PGE1 (added concentration: 0.1 μM) were subjected to 10 mins of incubation at 37° C. Afterwards, the cells were washed with ice-cold phosphate buffered saline containing 5 g/l of bovine serum albumin and next washed with ice-cold phosphate buffered saline. Then, radioactivity was measured. The amount of PGE1 uptake into PC12 cells was calculated.
2) Bromcresol green (hereinafter noted as “BrCG”), which is a PGT inhibitor, was placed together in the culture medium at the addition of PGE1. Afterwards, treatment was conducted in the same manner as mentioned in 1).
3) The antisense oligonucleotide specific to PGT cDNA was designed as follows:
Moreover, said antisense was thioate modified. Using Lipofectin (Gibco), PC12 underwent transfection during 2 days prior to the addition of PGE1. Afterwards, treatment was conducted in the same manner as mentioned in 1).

[1] = system: rat cerebral cortical neurons; assay: Apoptosis induced by amyloid beta peptide in rat cerebral cortical neurons, Hoechst 33342; format: cell-based; conditions: for Inhibition of apoptosis induction (%): Experiment 7, test drug added with Aged-Aβ25-35
Experimental: The cortex region of embryonic day 17 or 18 rat cerebrum was extracted on ice. Cells were dispersed using a neuron dispersal solution (Sumilon) after sectioning. Afterwards, cells were dispersed to a density of 1.5×10^5 cells/cm^2 in a culturing flask that was coated with polyethyleneimine beforehand. After 4 days of culturing, the following experiment was provided. Therefore, as the culture medium, Neurobasal medium (Gibco) adding with B27 supplement (1/50 volume), 2-mercaptoethanol (27.5 μM), L-glutamic acid (25 μM), and glutamine (0.5 mM) was used.
Amyloid beta peptide 25-35 (Aβ25-35) was dissolved in distilled water to a concentration of 1 mM, incubated for 1 week at about 37° C., and Aged-Aβ25-35 was prepared. The induction of apoptosis in neuron was performed by the replacement of the aforementioned culture medium (with the exception of L-glutamicacid) containing 10 μM Aged-Aβ25-35.
4) It was investigated that the suppressing effect of PGE1 on apoptosis induced by amyloid beta peptide. After dissolution of PGE1 in ethanol, when the aforementioned 2) Aged-Aβ25-35 was added to the culture medium, simultaneously PGE1 solution was added to it. The final concentration thereof was 1 μM.
Cells were washed with PBS (−) at 24 hrs after induction of apoptosis and fixed for 30 mins at room temperature using a 1% glutaraldehyde solution (in PBS). Next, cell were washed with PBS (−) two times and followed by incubation with 1 mM Hoechst 33342 solution (in PBS) for 2 mins. Afterwards, observation of nuclear chromatin morphology was conducted using a fluorescence microscope with 4 arbitrary visual fields. Normal cells and apoptotic cells (cell where chromatin fragmentation or condensation was appeared) were counted, and the ratio was calculated as the incidence of apoptosis. The n was 3.
6) The relationship between PGT inhibitors and apoptosis induced by amyloid beta peptide was investigated. BrCG, which is a PGT inhibitor, with a final concentration of 60 μM was added simultaneously with PGE1 but other manners were in accordance with the aforementioned ones in 1)-5).
It was investigated that the influence of PGT antisense on the inhibitory effect of PGE1 against apoptosis induced by amyloid beta peptide. PGT antisense was used as it is with regard to the oligonucleotide in Experiment 3. The addition concentration thereof was 1.5 μM. Incidence of apoptosis was performed in accordance with Experiment 5. Then was 3.
1) Drugs having an inhibitory activity against induction of apoptosis by amyloid beta peptide were investigated. After dissolving test drugs (PGE1, PGK1, PGK2, and bicyclo PGE2) in ethanol, when Aged-Aβ25-35 was added to the culture medium, simultaneously test drug solution were added to it. But other manners were in accordance with Experiment 5. Ratio of normal cells and apoptotic cells allowed calculation of the rate of inhibition of apoptosis induction.

SAPK/JNK = SAPK/JNK activation in PC12 cells after NGF withdrawal, Western blot; format: cell-based, rat; conditions: added with PGE1
Experimental: 4) Intercellular signals via SAPK/JNK Stress-activated protein kinase/Jun N-terminal kinase (abbreviated SAPK/JNK) is associated with apoptosis induction. Thus, intercellular signals within cells via SAPK/JNK were investigated based upon effects with respect to variations in SAPK/JNK activity.
The present experiment was performed with Western blot analysis. Individual additives were added to cell culturing medium for PC12 cells in accordance with the aforementioned experiment. Culturing was performed for 1-4 hrs after withdrawal of NGF. PC12 cells were lysed with a buffer solution, centrifuged, and the supernatant of cell lysate was prepared. After said supernatant was incubated with JNK 1 polyclonal antibodies (Santa Cruz Biotechnology) at 4° C. for 1 hr. Protein A sepharose was added to it. The resultant was incubated for 1 hr and the immunoprecipitate as described below was provided. […] of cell lysate was conducted with SDS-PAGE electrophoresis, and transferred to a nylon membrane (Amersham Pharmacia Biotech). Blotting of phosphorylated (active) JNK antibodies (Santa Cruz Biotechnology) was performed with this membrane, and bands were detected in accordance with the instruction manual. Intercellular signals within cells were amplified by chemiluminescence and auto radioactivity methods (FCL, Amersham Pharmacia Biotech).

NRK52E cells = assay: Apoptosis induced by NO donor GSNO in NRK52E kidney cells; format: cell-based, rat; conditions: for Effect on apoptosis in kidney cells (in words): NO donor GSNO
Experimental: 1) Apoptosis was induced by NO (nitrogen monoxide) in kidney cells. NRK52E cells, which are established from a rat renal tubule epithelial cell line, mainly derived from distal were cultured for 24 hours with a chamber slide that was coated with type-I collagen. Afterwards, the cultured medium was changed to a serum-free medium, and apoptosis was induced by addition of NOC12 (0.4 mM) or S-nitroso L-glutathione (GSNO: 1 mM), which are NO donors.
4) Inhibitory effect of PGE1 to the induction of apoptosis in kidney cells was investigated PGE1 was added simultaneously with the addition of a NO donor to a final concentration of 1 or 10 μM. After 24 hrs, cells were fixed with a 1% glutaraldehyde solution and stained with Hoechst 33342. Three visual fields were selected arbitrarily per slide, and the ratio of the cells count where nuclear fragmentation and condensation appeared was calculated with respect to the total cells in the field (magnification: 400x). The n was 5.
5) The relationship between PGT inhibitors and kidney cell apoptosis induced by GSNO was examined. With a final concentration of BrCG, which is a PGT inhibitor, of 60 μM, manners other than simultaneous addition with GSNO and PGE1 were in accordance with the aforementioned ones in 4). The PGE1 final concentration was 1 μM. The n was 3.
1) Drugs having suppressing activity on apoptosis inducted in kidney cells by an NO donor were investigated. PGK1 and bicyclo PGE2 were used as test drugs, but other manners were in accordance with Experiment 8. The final concentration of the test drugs was 1 μM. The n was 5.
2) It was investigated the effects of a PGT inhibitor on the apoptosis-suppressing activity of PGK1 and bicyclo PGE2 in kidney cells. With a final concentration of BrCG, which is a PGT inhibitor, of 60 μM, manners other than simultaneous addition of GSNO and test drugs were in accordance with the aforementioned methods in 1). The n was 4.

[2] = Hypotensive effect in anesthetized normal rats, mean blood pressure; format: in vivo, rat; set-up: Decrease in blood pressure: unit not given here; conditions: for Decrease in blood pressure: 100 μg/kg body weight into caudal artery, mean blood pressure before and after, n 3; for Hypotensive effect (in words): dose that suppresses apoptosis sufficiently
Experimental: 2) The hypotensive effect of the test drugs was examined. After anesthetizing normal rats (male, body weight of about 300 g) with intraperitoneal administration of Nembutal, the dorsal region was fixed. Next, a cannula was inserted in the carotid artery and blood pressure was measured through a transducer (Nihon Kohden Corporation); simultaneous recording was made in combination with a polygraph (Nihon Kohden Corporation). After dissolving the test drugs in ethanol, and diluted (x200) with saline. Administration was given in the caudal artery in a dose of 100 μg/kg body weight. The mean blood pressure (MBP) was measured. The decrease in blood pressure was calculated from the measured values before and after administration. The n was 3 per group.

[3] = system: differentiated PC12 cells; assay: Induction of apoptosis by PGT antisense in differentiated PC12 cells, TUNEL staining; format: cell-based, rat
Experimental: 1) Rat adrenal pheochromocytoma PC12 cells (obtained by: ATCC; importer: Dainippon Pharmaceutical) was cultured in a Neurobasal culture medium containing mouse β NGF (100 ng/ml), N2 supplement (1%), and TIP (5 μg/ml transferrin, 5 μg/ml insulin, and 10 ng/ml progesterone). Differentiation of neuron was performed.
2) Then, antisense solution prepared in Example 6 is added (final concentration: 600 nM) and cultured for 2 days. As a negative control, Lipofectin in alone is added in the same manner and cultured for the same period of time. Apoptosis detection is performed by TUNEL staining after cell fixation (room temperature for 30 min) with a 10% neutral formalin buffer solution. Observation was made from 6 arbitrary visual fields using a light microscope. Total cells and TUNEL (apoptosis)—positive cells were counted, and the incidence of apoptosis was calculated.

[4] = Table 13, GSNO, test drug 1 μM, n 5
[5] = Tables 14 and 15, GSNO, test drug alone, n 4

Compound	Amount of PGE1 uptake (PGT; PGE1 0.1 μM with BrCG 1 μM)	Amount of PGE1 uptake (PGT; PGE1 0.1 μM with BrCG 1 μM (second row, printed so))	Effect on PGE1 inhibition of amyloid beta peptide-induced apoptosis (in words) ([1]; BrCG 60 μM with PGE1)	Effect on PGE1 suppression of SAPK/JNK activation (in words) (SAPK/JNK)	Effect on apoptosis-suppressing activity of the test drug in kidney cells (in words) (NRK52E cells; BrCG 60 μM, GSNO)	Effect on apoptosis induced by amyloid beta peptide (in words) [1]	Inhibition of apoptosis induction (%) [1]	Decrease in blood pressure [2]	Hypotensive effect (in words) [2]	Effect on apoptosis in kidney cells (in words) (NRK52E cells)	Incidence of apoptosis (%) (NRK52E cells; [4])	Incidence of apoptosis (%) (NRK52E cells; [5])	Amount of PGE1 uptake (PGT; PGE1 0.1 μM, antisense 0.5 μM transfected 2 days before)	Amount of PGE1 uptake (PGT; PGE1 0.1 μM, antisense 1.5 μM transfected 2 days before)	TUNEL-positive cells (%) ([3]; antisense 600 nM, cultured 2 days)	Induction of apoptosis (in words) ([3]; antisense addition)
Cc1c(C2(c3cc(Br)c(O)c(Br)c3C)OS(=O)(=O)c3ccccc32)cc(Br)c(O)c1Br [BrCG, Bromcresol green]	60 ± 15 fmol/mg protein/10 mins	20 ± 8 fmol/mg protein/10 mins	inhibited said effect of PGE1	inhibited PGE1-suppressing effect	inhibited apoptosis-suppressing activity by PGE1; also recorded: partially inhibited apoptosis-suppressing effect											
CCCCC1C(=O)CC[C@H]2[C@@H]1CC(=O)[C@@H]2C/C=C\CCCC(=O)O (stereo partly shown) [bicyclo PGE2]						displayed activity to suppress apoptosis of neurons	40.6%	0	substantially causes no decrease in blood pressure	suppressed apoptosis induced by GSNO in kidney cells	6 ± 1 %	9 ± 2%				
CCCCC[C@H](O)/C=C/[C@H]1C(=O)CC(=O)[C@@H]1CCCCCCC(=O)O [PGK1]						displayed activity to suppress apoptosis of neurons	45.4%	−5	substantially causes no decrease in blood pressure	suppressed apoptosis induced by GSNO in kidney cells	8 ± 1 %	8 ± 1%				
CCCCC[C@H](O)/C=C/[C@H]1C(=O)CC(=O)[C@@H]1C/C=C\CCCC(=O)O [PGK2]						displayed activity to suppress apoptosis of neurons	36.2%	+2	substantially causes no decrease in blood pressure							
PGT antisense: antisense oligonucleotide specific to PGT, 5′-GGCTTGAGCAGGAGCCCCAT-3′, thioate modified, used with Lipofectin (all phosphorothioate, sugars by position and methylation of C not given here)				inhibited PGE1-suppressing effect									56 ± 17 fmol/mg protein/10 mins	14 ± 14 fmol/mg protein/10 mins	12.9 ± 1.1%	apoptosis have been induced
